For one compound, binding and Kd results are on record in article PMC2663033 (2009).

The subject of experiment [1] is aptamer II (DNA, G4) AGTCCGTGGTTGGTGTGGTTGGGGTGACT
Briefly: peroxidase activity (ABTS-H2O2). Conditions: 20 mM K+, 200 mM Na+; 25 mM HEPES pH 8.0, 0.05% Triton X-100, 1% DMSO; 1 µM hemin plus 1 µM aptamer.

The subject of experiment [2] is aptamer 4 (DNA, G4) AGGGACGGGAAGAA/AAAATGTGGAGGGT
Briefly: UV-Vis, hyperchromicity of hemin Soret band. Conditions: 20 mM K+, 200 mM Na+; 25 mM HEPES pH 7.4, 0.05% Triton X-100, 1% DMSO; 1 µM complex.

In experiment [3] the test system is aptamer III (DNA, G4) AGGGACGGGAAGAAAAGGAAAATCCTTAAAATGTGGAGGGT
In words: UV-Vis, hyperchromicity of hemin Soret band. Conditions: 20 mM K+, 200 mM Na+; 25 mM HEPES pH 7.4, 0.05% Triton X-100, 1% DMSO; 1 µM complex; about 2 x affinity of aptamer 4.

Experiment [4] relates to aptamer 1 (DNA, G4) GGGTAGGGCGGGTTGGG
In words: peroxidase activity titration (ABTS-H2O2, A421). Conditions: 20 mM K+, 200 mM Na+; 5.45 mM ABTS, 25 mM HEPES pH 8.0, 0.05% Triton X-100, 1% DMSO, 0.1 µM hemin.

The subject of experiment [5] is aptamer I (DNA, G4) AGTCCGTGGGTAGGGCGGGTTGGGGGTGACT
In words: peroxidase activity titration (ABTS-H2O2, A421). Conditions: 20 mM K+, 200 mM Na+; 5.45 mM ABTS, 25 mM HEPES pH 8.0, 0.05% Triton X-100, 1% DMSO, 0.1 µM hemin.

For `C=CC1=C(C)C2=Cc3c(C=C)c(C)c4[n]3[Fe]([Cl])[n]3c(c(C)c(CCC(=O)O)c3=CC3=NC(=C4)C(C)=C3CCC(=O)O)=CC1=N2`, the binding result in experiment [1], in experiment [2] and in experiment [3] was “yes” throughout. Further, the equilibrium dissociation constant (Kd) is 258 ± 7 nM in experiment [4] and 194 ± 10 nM in experiment [5].
